Laboratory results: US11597919B2, “Systems, methods and compositions for sequence manipulation with optimized functional CRISPR-Cas systems” (The Broad Institute, Inc., priority 2013, dated 2023)

Experiments:
[1] = test system: A375 melanoma cell line (BRAF V600E); details: cited from earlier work
HEK 293FT cells = assay: Nuclease and double-nicking activity of potential nickases, SURVEYOR analysis (Example 10); assay type: cell-based, human; details: 400 ng nickase, 100 ng sgRNA
Description: Nuclease and double-nicking activities for all potential nickases were tested in HEK 293FT cells as follows: co-transfection of 400 ng of nickase and 100 ng of U6-driven sgRNA (100 ng for one guide, or 50 ng each for a pair of sgRNAs) by Lipofectamine 2000 into ˜200,000 cells. DNAs from transfected cells were collected for SURVEYOR analysis.

RNA = details: cited from earlier work
human EMX1 locus [2] = assay: Sequencing of amplicons containing the EMX1 target locus; assay type: cell-based; details: 327 amplicons
Description: HEK 293FT or N2A cells were transfected with plasmid DNA as described above. After transfection, the cells were incubated at 37° C. for 72 hours before genomic DNA extraction. Genomic DNA was extracted using the QuickExtract DNA extraction kit (Epicentre) following the manufacturer's protocol. Briefly, cells were resuspended in QuickExtract solution and incubated at 65° C. for 15 minutes and 98° C. for 10 minutes. Extracted genomic DNA was immediately processed or stored at −20° C.
Since DSBs in mammalian nuclei are partially repaired by the non-homologous end joining (NHEJ) pathway, which leads to the formation of indels, the Surveyor assay was used to detect potential cleavage activity at the target EMX1 locus (FIG. 7) (see e.g. Guschin et al., 2010, Methods Mol Biol 649: 247). Co-transfection of all four CRISPR components was able to induce up to 5.0% cleavage in the protospacer (see FIG. 2D). […] Removing any of the remaining three components abolished the genome cleavage activity of the CRISPR system (FIG. 2D). Sanger sequencing of amplicons containing the target locus verified the cleavage activity: in 43 sequenced clones, 5 mutated alleles (11.6%) were found. Similar experiments using a variety of guide sequences produced indel percentages as high as 29% (see FIGS. 3-6, 10, and 11).

human EMX1 locus [3] = assay: Surveyor assay for genome modification at the human EMX1 locus in HEK 293FT cells; assay type: cell-based; details: co-expression with EMX1-targeting chimeric crRNA; n=3
Description: Cells were transfected using Lipofectamine 2000 (Life Technologies) following the manufacturer's recommended protocol. For each well of a 24-well plate a total of 800 ng of plasmids were used.
Genomic DNA was extracted using the QuickExtract DNA extraction kit (Epicentre) following the manufacturer's protocol. […] Extracted genomic DNA was immediately processed or stored at −20° C.
The genomic region surrounding a CRISPR target site for each gene was PCR amplified, and products were purified using QiaQuick Spin Column (Qiagen) following manufacturer's protocol. A total of 400 ng of the purified PCR products were mixed with 2 μl 10× Taq polymerase PCR buffer (Enzymatics) and ultrapure water to a final volume of 20 μl, and subjected to a re-annealing process to enable heteroduplex formation: 95° C. for 10 min, 95° C. to 85° C. ramping at −2° C./s, 85° C. to 25° C. at −0.25° C./s, and 25° C. hold for 1 minute. After re-annealing, products were treated with Surveyor nuclease and Surveyor enhancer S (Transgenomics) following the manufacturer's recommended protocol, and analyzed on 4-20% Novex TBE poly-acrylamide gels (Life Technologies). Gels were stained with SYBR Gold DNA stain (Life Technologies) for 30 minutes and imaged with a Gel Doc gel imaging system (Bio-rad). Quantification was based on relative band intensities, as a measure of the fraction of cleaved DNA.

[4] = test system: target DNA with 5′-NGG PAM; assay: Cleavage of target DNA bearing 5′-NGG PAM by PI domain chimeras (Example 12); assay type: cell-based, human; details: 5′-GGGCT
Description: Cells were transfected using Lipofectamine 2000 (Life Technologies) at 70-80% confluency following the manufacturer's recommended protocol.
Genomic DNA was extracted using the QuickExtract DNA Extraction Solution (Epicentre) following the manufacturer's protocol.
400 ng total of the purified PCR products were mixed with 2 μl 10× Taq DNA Polymerase PCR buffer (Enzymatics) and ultrapure water to a final volume of 20 μl, and subjected to a re-annealing process to enable heteroduplex formation: 95° C. for 10 min, 95° C. to 85° C. ramping at −2° C./s, 85° C. to 25° C. at −0.25° C./s, and 25° C. hold for 1 min. After re-annealing, products were treated with SURVEYOR nuclease and SURVEYOR enhancer S (Transgenomics) following the manufacturer's recommended protocol, and analyzed on 4-20% Novex TBE poly-acrylamide gels (Life Technologies). Gels were stained with SYBR Gold DNA stain (Life Technologies) for 30 min and imaged with a Gel Doc gel imaging system (Bio-rad). Quantification was based on relative band intensities. Indel percentage was determined by the formula, 100×(1−(1−(b+c)/(a+b+c))^1/2), where a is the integrated intensity of the undigested PCR product, and b and c are the integrated intensities of each cleavage product.

Molecule: CCCS(=O)(=O)Nc1ccc(F)c(C(=O)c2c[nH]c3ncc(Cl)cc23)c1F [PLX4720]
- sensitivity of cell line to BRAF inhibitor [1]: naturally sensitive

Molecule: Cbh-hSpCas9(D10A)-NLS: SpCas9 RuvCI mutant D10A, homology set
- Functional? (HEK 293FT cells): nickase activity

Molecule: Cbh-hSpCas9(H840A)-NLS: SpCas9 HNH mutant H840A, homology set
- Functional? (HEK 293FT cells): no activity

Molecule: N55K mutant: N55K mutant of the MS2 bacteriophage coat protein
- binding affinity (RNA): higher binding affinity than wild type MS2

Molecule: SpCas9n: SpCas9 with aspartate-to-alanine substitution (D10A) in the RuvC I catalytic domain, a nickase
- indels detected by sequencing (human EMX1 locus [2]): did not detect any indels
- indels at the EMX1 protospacer target (human EMX1 locus [3]): does not generate indels

B1: Sp-St3Cas9: SpCas9 with the PI domain of St3Cas9, SEQ ID NO: 121 (protein)
chain: MDYKDHDGDYKDHDIDYKDDDDKMAPKKKRKVGIHGVPAADKKYSIGLDIGTNSVGWAVITDEYKVPSKKFKVLGNTDRHSIKKNLIGALLFDSGETAEATRLKRTARRRYTRRKNRICYLQEIFSNEMAKVDDSFFHRLEESFLVEEDKKHERHPIFGNIVDEVAYHEKYPTIYHLRKKLVDSTDKADLRLIYLALAHMIKFRGHFLIEGDLNPDNSDVDKLFIQLVQTYNQLFEENPINASGVDAKAILSARLSKSRRLENLIAQLPGEKKNGLFGNLIALSLGLTPNFKSNFDLAEDAKLQLSKDTYDDDLDNLLAQIGDQYADLFLAAKNLSDAILLSDILRVNTEITKAPLSASMIKRYDEHHQDLTLLKALVRQQLPEKYKEIFFDQSKNGYAGYIDGGASQEEFYKFIKPILEKMDGTEELLVKLNREDLLRKQRTFDNGSIPHQIHLGELHAILRRQEDFYPFLKDNREKIEKILTFRIPYYVGPLARGNSRFAWMTRKSEETITPWNFEEVVDKGASAQSFIERMTNFDKNLPNEKVLPKHSLLYEYFTVYNELTKVKYVTEGMRKPAFLSGEQKKAIVDLLFKTNRKVTVKQLKEDYFKKIECFDSVEISGVEDRFNASLGTYHDLLKIIKDKDFLDNEENEDILEDIVLTLTLFEDREMIEERLKTYAHLFDDKVMKQLKRRRYTGWGRLSRKLINGIRDKQSGKTILDFLKSDGFANRNFMQLIHDDSLTFKEDIQKAQVSGQGDSLHEHIANLAGSPAIKKGILQTVKVVDELVKVMGRHKPENIVIEMARENQTTQKGQKNSRERMKRIEEGIKELGSQILKEHPVENTQLQNEKLYLYYLQNGRDMYVDQELDINRLSDYDVDHIVPQSFLKDDSIDNKVLTRSDKNRGKSDNVPSEEVVKKMKNYWRQLLNAKLITQRKFDNLTKAERGGLSELDKAGFIKRQLVETRQITKHVAQILDSRMNTKYDENDKLIREVKVITLKSKLVSDFRKDFQFYKVREINNYHHAHDAYLNAVVGTALIKKYPKLESEFVYGDYKVYDVRKMIAKSEQEIGKATAKYFFYSNIMNFFKTEITLANGEIRKRPLIETNGETGEIVWDKGRDFATVRKVLSMPQVNIVKKTVEEQNHGLDRGKPKGLFNANLSSKPKPNSNENLVGAKEYLDPKKYGYGGYAGISNSFTVLVKGTIEKGAKKKITNVLEFQGISILDRINYRKDKLNFLLEKGYKDIELIIELPKYSLFELSDGSRRMLASILSTNNKRGEIHKGNQIFLSQKFVKLLYHAKRISNTINENHRKYVENHKKEFEELFYYILEFNENYVGAKKNGKLLNSAFQSWQNHSIDELCSSFIGPTGSERKGLFELTSRGSAADFEFLGVKIPRYRDYTPSSLLKDATLIHQSVTGLYETRIDLAKLGEGKRPAATKKAGQAKKKK
- cleavage of target DNA with 5′-NGG PAM [4]: retained cleavage activity for the target DNA with 5′-NGG PAM, albeit at a lower level than that of SpCas9
